What was measured:
Settings in all cases: 72 h
Caco-2 [1] = assay: cell viability relative to DMSO; higher = less toxic
HepG2 [2] = assay: as above
U2OS [3] = assay: as above
Vero E6 [4] = assay: as above
Caco-2 [5] = assay: relative viability EC50 (midpoint between 100% and the lowest measured viability); higher = less toxic
HepG2 [6] = assay: as above
U2OS [7] = assay: as above
Vero E6 [8] = assay: as above
Caco-2 [9] = assay: drug sensitivity score (DSS) for viability; higher = more toxic; extreme values may be limits of the assay
HepG2 [10] = assay: as above
U2OS [11] = assay: as above
Vero E6 [12] = assay: as above
Calu-3 [13] = assay: cell viability relative to DMSO; higher = less toxic
Calu-3 [14] = assay: relative viability EC50 (midpoint between 100% and the lowest measured viability); higher = less toxic
Calu-3 [15] = assay: drug sensitivity score (DSS) for viability; higher = more toxic; extreme values may be limits of the assay

Row | SMILES | cell viability (Caco-2 [1]; 1 nM) | cell viability (Caco-2 [1]; 10 nM) | cell viability (Caco-2 [1]; 100 nM) | cell viability (Caco-2 [1]; 1000 nM) | cell viability (Caco-2 [1]; 10000 nM) | cell viability (HepG2 [2]; 1 nM) | cell viability (HepG2 [2]; 10 nM) | cell viability (HepG2 [2]; 100 nM) | cell viability (HepG2 [2]; 1000 nM) | cell viability (HepG2 [2]; 10000 nM) | cell viability (U2OS [3]; 1 nM) | cell viability (U2OS [3]; 10 nM) | cell viability (U2OS [3]; 100 nM) | cell viability (U2OS [3]; 1000 nM) | cell viability (U2OS [3]; 10000 nM) | cell viability (Vero E6 [4]; 1 nM) | cell viability (Vero E6 [4]; 10 nM) | cell viability (Vero E6 [4]; 100 nM) | cell viability (Vero E6 [4]; 1000 nM) | cell viability (Vero E6 [4]; 10000 nM) | relative viability EC50 (Caco-2 [5]) | relative viability EC50 (HepG2 [6]) | relative viability EC50 (U2OS [7]) | relative viability EC50 (Vero E6 [8]) | drug sensitivity score (Caco-2 [9]) | drug sensitivity score (HepG2 [10]) | drug sensitivity score (U2OS [11]) | drug sensitivity score (Vero E6 [12]) | cell viability (Calu-3 [13]; 1 nM) | cell viability (Calu-3 [13]; 10 nM) | cell viability (Calu-3 [13]; 100 nM) | cell viability (Calu-3 [13]; 1000 nM) | cell viability (Calu-3 [13]; 10000 nM) | relative viability EC50 (Calu-3 [14]) | drug sensitivity score (Calu-3 [15])
1 | CCc1cc2c(cc1N1CCC(N3CCOCC3)CC1)C(C)(C)c1[nH]c3cc(C#N)ccc3c1C2=O [alectinib] | 98.7% | 96.8% | 110% | 103% | 106% | 101% | 99.9% | 104% | 100% | 75.9% | 102% | 100% | 102% | 95.9% | 102% | 96% | 94.3% | 96.1% | 93.7% | 89% | > 10 µM | > 10 µM | > 10 µM | > 10 µM | 0 | 0.9 | 0 | 0 |  |  |  |  |  |  | 
2 | CC[N+](CC)(CCCNC1=CC(=O)C(NCCC[N+](CC)(CC)Cc2ccccc2)=CC1=O)Cc1ccccc1 [benzoquinonium-dibromide] | 94.5% | 98.6% | 95.4% | 96.3% | 91.7% | 96.3% | 106% | 95.2% | 100% | 95% | 94.6% | 94.4% | 96.8% | 95.8% | 98.3% |  |  |  |  |  | > 10 µM | > 10 µM | > 10 µM |  | 0 | 0 | 0 |  | 103% | 92.9% | 108% | 104% | 96.8% | > 10 µM | 0
3 | COc1c(O)cc2c(c1O)[C@@H]1O[C@H](CO)[C@@H](O)[C@H](O)[C@H]1OC2=O [bergenin] | 80.5% | 106% | 80.2% | 83.1% | 80.5% | 108% | 79.5% | 98.8% | 88.8% | 96.1% | 96.7% | 97.8% | 95.2% | 97.7% | 97.5% | 106% | 103% | 103% | 90.5% | 101% | > 10 µM | > 10 µM | > 10 µM | > 10 µM | 4.5 | 0 | 0 | 0 |  |  |  |  |  |  | 
4 | O=C(O)c1cc(=O)c2c(OCC(O)COc3cccc4oc(C(=O)O)cc(=O)c34)cccc2o1 [cromoglicic-acid] | 97% | 100% | 98.6% | 102% | 92.3% | 101% | 95.3% | 104% | 105% | 101% | 96.4% | 99.4% | 98.4% | 103% | 96.9% | 100% | 101% | 101% | 96.6% | 100% | > 10 µM | > 10 µM | > 10 µM | > 10 µM | 0 | 0 | 0 | 0 |  |  |  |  |  |  | 
5 | CCOP(=S)(OCC)Oc1cc(C)nc(C(C)C)n1 [dimpylate] | 102% | 95.4% | 103% | 93% | 93.2% | 92.9% | 104% | 106% | 101% | 96.8% | 104% | 102% | 102% | 97.9% | 99.2% |  |  |  |  |  | > 10 µM | > 10 µM | > 10 µM |  | 0 | 0 | 0 |  | 106% | 100% | 99.3% | 97.7% | 96.3% | > 10 µM | 0
6 | O=C1O[C@H](CO)[C@@H](O)[C@H](O)[C@H]1O [gluconolactone] | 109% | 106% | 102% | 95.1% | 101% | 90.9% | 103% | 92.2% | 91.2% | 94.5% | 106% | 102% | 104% | 98.9% | 106% |  |  |  |  |  | > 10 µM | > 10 µM | > 10 µM |  | 0 | 0 | 0 |  | 99.6% | 90.5% | 100% | 97.2% | 105% | > 10 µM | 0
7 | O=C(NCNC(=O)NC1C(=O)NC(=O)N1CO)NC1C(=O)NC(=O)N1CO (centres undefined) [imidurea] | 90.7% | 95.4% | 98.7% | 98% | 103% | 104% | 97.3% | 89.8% | 98.1% | 82.9% | 103% | 97.3% | 102% | 98.3% | 102% |  |  |  |  |  | > 10 µM | > 10 µM | > 10 µM |  | 0 | 0.3 | 0 |  | 94.4% | 98.1% | 104% | 103% | 95.6% | > 10 µM | 0
8 | O=C(Nc1ccncc1)C(=O)c1cn(Cc2ccc(Cl)cc2)c2ccccc12 [indibulin] | 75% | 84% | 94.9% | 82.9% | 92.2% | 91.6% | 107% | 94.9% | 91.3% | 94.5% | 111% | 99% | 97.2% | 95.4% | 90.9% | 75.1% | 104% | 79.4% | 97.3% | 66.1% | > 10 µM | > 10 µM | > 10 µM |  | 0 | 0 | 0 | 2 | 97.9% | 95% | 110% | 102% | 104% | > 10 µM | 0
9 | CCCCC(F)(F)[C@@]1(O)CC[C@H]2[C@@H](CC(=O)[C@@H]2CCCCCCC(=O)O)O1 [lubiprostone] | 108% | 101% | 101% | 103% | 97.8% |  |  |  |  |  | 104% | 102% | 104% | 99.8% | 104% |  |  |  |  |  | > 10 µM |  | > 10 µM |  | 0 |  | 0 |  | 106% | 102% | 111% | 98.6% | 98.8% | > 10 µM | 0
10 | O=C(O)[C@H](O)c1ccccc1 [mandelic-acid] | 91.9% | 84.2% | 104% | 94.4% | 91.6% | 110% | 96.7% | 103% | 96.4% | 102% | 98.7% | 100% | 99.3% | 106% | 94.8% | 100% | 99.1% | 93.8% | 97.3% | 98.9% | > 10 µM | > 10 µM | > 10 µM | > 10 µM | 0 | 0 | 0 | 0 |  |  |  |  |  |  | 
11 | CC(CNC(=O)c1cccnc1)NC(=O)c1cccnc1 (centres undefined) [nicaraven] | 97.3% | 103% | 94.9% | 97.6% | 89.4% | 94.7% | 106% | 90.8% | 101% | 98.9% | 97% | 97.2% | 98.7% | 99.8% | 92.1% | 93.8% | 99.1% | 101% | 97.3% | 97.7% | > 10 µM | > 10 µM | > 10 µM | > 10 µM | 0 | 0 | 0 | 0 |  |  |  |  |  |  | 
12 | COC(=O)C1=C(C)NC(C)=C(C(=O)OCC(C)C)C1c1ccccc1[N+](=O)[O-] (centres undefined) [nisoldipine] | 98.2% | 109% | 99.1% | 93.8% | 63.1% | 100% | 98.7% | 104% | 92.4% | 42.6% | 101% | 106% | 102% | 99.4% | 51.1% | 100% | 101% | 102% | 94.6% | 60.7% |  | 2.1 µM |  |  | 2.8 | 4.4 | 2.6 | 2.8 | 97.6% | 106% | 107% | 94.6% | 103% | > 10 µM | 0
13 | C[C@@]12C[C@@]3(O)O[C@@H](O1)[C@]1(COC(=O)c4ccccc4)[C@H]3C[C@@]12O[C@@H]1O[C@H](CO)[C@@H](O)[C@H](O)[C@H]1O [paeoniflorin] | 103% | 101% | 96% | 93.5% | 96% | 100% | 100% | 102% | 107% | 95.9% | 101% | 99.8% | 104% | 102% | 101% |  |  |  |  |  | > 10 µM | > 10 µM | > 10 µM |  | 0 | 0 | 0 |  | 91% | 98.6% | 107% | 87% | 98.7% | > 10 µM | 0
14 | Cc1ccnc(NC(=O)C(C)c2cccc(C(=O)c3ccccc3)c2)c1 (centres undefined) [piketoprofen] | 96.7% | 87.3% | 91.7% | 93.5% | 91.5% | 103% | 89.3% | 111% | 107% | 80.8% | 105% | 102% | 97.7% | 103% | 95.3% | 98.3% | 98.8% | 99.8% | 106% | 96.1% | > 10 µM | > 10 µM | > 10 µM | > 10 µM | 0 | 0.3 | 0 | 0 |  |  |  |  |  |  | 
15 | Cc1cc(/C=C/C#N)cc(C)c1Nc1ccnc(Nc2ccc(C#N)cc2)n1 [rilpivirine] | 97.8% | 98% | 93.3% | 87.3% | 61.4% | 98.9% | 99.8% | 99.5% | 96.9% | 47.7% | 94.8% | 99.1% | 99.6% | 95.4% | 80.5% | 100% | 100% | 96.8% | 98.5% | 70.5% |  | 2.69 µM | > 10 µM |  | 3.1 | 3.2 | 1.1 | 1.5 | 97% | 93.7% | 99.8% | 95.6% | 92.7% | > 10 µM | 0
16 | COc1cc2c(N3CCN(C(=O)Nc4ccc(OC(C)C)cc4)CC3)ncnc2cc1OCCCN1CCCCC1 [tandutinib] | 113% | 102% | 112% | 105% | 98.2% | 110% | 112% | 112% | 109% | 84.1% |  |  |  |  |  |  |  |  |  |  | > 10 µM | > 10 µM |  |  | 0 | 0.1 |  |  | 109% | 97% | 94.7% | 108% | 111% | > 10 µM | 0
